Series [1] deals with T1, Perforin-1 (Homo sapiens) (UniProt P14222).
T1 sequence (whole entry): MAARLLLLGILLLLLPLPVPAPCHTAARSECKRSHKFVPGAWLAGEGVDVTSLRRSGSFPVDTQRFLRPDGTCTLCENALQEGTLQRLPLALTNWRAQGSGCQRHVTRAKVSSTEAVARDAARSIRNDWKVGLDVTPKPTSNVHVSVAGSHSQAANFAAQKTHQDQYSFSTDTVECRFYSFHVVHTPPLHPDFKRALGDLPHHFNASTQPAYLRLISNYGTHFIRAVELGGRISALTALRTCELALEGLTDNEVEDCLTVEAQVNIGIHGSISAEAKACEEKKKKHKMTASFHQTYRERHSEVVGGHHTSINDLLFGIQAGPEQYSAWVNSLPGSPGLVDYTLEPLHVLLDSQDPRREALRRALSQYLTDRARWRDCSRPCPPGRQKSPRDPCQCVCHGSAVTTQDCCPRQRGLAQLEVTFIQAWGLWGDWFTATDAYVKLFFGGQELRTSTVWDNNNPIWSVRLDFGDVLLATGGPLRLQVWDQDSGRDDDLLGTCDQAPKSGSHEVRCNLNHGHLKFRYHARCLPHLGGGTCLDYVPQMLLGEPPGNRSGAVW
Kind of series: Inhibition of perforin released from human KHYG-1 NK cells assessed as inhibition of perforin mediated lysis of human K562 cells at 20 uM in presence of 0.1% BSA by [51Cr] release assay. Format: cell-based.

Series [2] is described as follows: Toxicity against human KHYG-1 NK cells assessed as cell viability at 20 uM incubated for 24 hrs at 37 degC y Trypan blue exclusion method. Format: cell-based. To be noted: read-out: Activity.
Series [3] has as its target T1, Perforin-1 (Homo sapiens). Briefly: Inhibition of perforin released from human KHYG-1 NK cells assessed as inhibition of perforin mediated lysis of human K562 cells at 20 uM in presence of 10% mouse serum by [51Cr] release assay. Format: cell-based.
The nature of series [4]: Inhibition of recombinant perforin mediated lysis of human Jurkat cells pre-incubated for 30 mins with perforin followed by incubation with Jurkat cells at 37 degC for 4 hrs in presence of 0.1% BSA by [51Cr] release assay.

This is an account of results in ChEMBL document CHEMBL1795322, “Inhibition of the cellular function of perforin by 1-amino-2,4-dicyanopyrido[1,2-a]benzimidazoles” (Bioorg Med Chem, 2011).

SMILES strings stand for the structures. pIC50: −log10 of the molar value.

One may read the inhibition as the drop in the measured response relative to a control, in per cent. For `CCNC(=O)COc1ccc(-c2c(C#N)c(N)n3c(nc4ccccc43)c2C#N)cc1`, the results for the inhibition in series [1] and in series [3] were 0% and 11%, respectively. The viability at 24 h, 20 µM in series [2] came out at 77%.
The corresponding values for `Cc1ccc2c(nc3c(C#N)c(-c4ccc(OCC(N)=O)cc4)c(C#N)c(N)n32)c1C` are 36%, 7% and 60%.
For orientation: pIC50 means −log10 of the IC50, conventionally taken in molar units. For the compound `Cc1cc2c(c(=S)[nH]1)C(=O)O/C2=C\c1csc2ccccc12`, the pIC50 in series [4] is 6.01. The inhibition in series [1] came to 60%; in series [3], 6%. Further, in series [2], the viability at 24 h, 20 µM is 88%.
`N#Cc1c(-c2ccc(OCC(=O)NCCO)cc2)c(C#N)c2nc3ccccc3n2c1N`: the inhibition in series [1] was determined as 0%; in series [3], 6%. Further, the viability at 24 h, 20 µM in series [2] is 92%.
Take `CN(C)C(=O)CCc1ccc(-c2c(C#N)c(N)n3c(nc4ccccc43)c2C#N)cc1`: the inhibition is 49% in series [1] and 64% in series [3]. In addition, the viability at 24 h, 20 µM in series [2] came to 96%.
The corresponding values for `N#Cc1c(-c2ccc(C(=O)NCC(O)CO)cc2)c(C#N)c2nc3ccccc3n2c1N` (configuration not stated) are 0%, 0% and 84%.
Consider `N#Cc1c(-c2ccc(C(N)=O)cc2)c(C#N)c2nc3ccccc3n2c1N`, for which the inhibition worked out at 7% in series [1] and 6% in series [3]. For the same compound, the viability at 24 h, 20 µM in series [2] was 79%.
The corresponding values for `N#Cc1c(-c2ccc(C(=O)NCCN3CCOCC3)cc2)c(C#N)c2nc3ccccc3n2c1N` are 1%, 5% and 85%.
The corresponding values for `CC(O)CNC(=O)c1ccc(-c2c(C#N)c(N)n3c(nc4ccccc43)c2C#N)cc1` (configuration not stated) are 0%, 0% and 68%.
The corresponding values for `Cc1cc2nc3c(C#N)c(-c4ccc(OCC(N)=O)cc4)c(C#N)c(N)n3c2cc1C` are 38%, 5% and 62%.
As to `Cc1cccc2c1nc1c(C#N)c(-c3ccc(OCC(N)=O)cc3)c(C#N)c(N)n12`, the inhibition in series [1] amounted to 10%; in series [3], 8%. Also, the viability at 24 h, 20 µM in series [2] amounted to 88%.
On to `CNC(=O)COc1ccc(-c2c(C#N)c(N)n3c(nc4ccccc43)c2C#N)cc1`, for which the figures for the inhibition in series [1] and in series [3] were 41% and 42%, respectively. In addition, the viability at 24 h, 20 µM in series [2] worked out at 84%.
The corresponding values for `CC(C)NC(=O)COc1ccc(-c2c(C#N)c(N)n3c(nc4ccccc43)c2C#N)cc1` are 52%, 22% and 70%.
As for `CCNC(=O)c1ccc(-c2c(C#N)c(N)n3c(nc4ccccc43)c2C#N)cc1`, the inhibition worked out at 19% in series [1] and 12% in series [3]. In addition, the viability at 24 h, 20 µM in series [2] was found to be 53%.
The corresponding values for `CNC(=O)c1ccc(-c2c(C#N)c(N)n3c(nc4ccccc43)c2C#N)cc1` are 9%, 12% and 84%.
The corresponding values for `N#Cc1c(-c2ccc(C(=O)NCCO)cc2)c(C#N)c2nc3ccccc3n2c1N` are 4%, 12% and 89%.
The corresponding values for `N#Cc1c(-c2ccc(OCCO)cc2)c(C#N)c2nc3ccccc3n2c1N` are 15%, 16% and 85%.
For `N#Cc1c(-c2ccc(C(=O)NCCCO)cc2)c(C#N)c2nc3ccccc3n2c1N`, the inhibition in series [1] amounted to 0%; in series [3], 7%. Besides, the viability at 24 h, 20 µM in series [2] is 86%.
For the compound `CCCNC(=O)COc1ccc(-c2c(C#N)c(N)n3c(nc4ccccc43)c2C#N)cc1`, the results for the inhibition in series [1] and in series [3] were 41% and 22%, respectively. Besides, the viability at 24 h, 20 µM in series [2] came out at 90%.
The corresponding values for `N#Cc1c(-c2ccc(OCC(N)=O)cc2)c(C#N)c2nc3ccccc3n2c1N` are 18%, 2% and 86%.
The corresponding values for `N#Cc1c(-c2ccc(C(=O)NCCc3ccncc3)cc2)c(C#N)c2nc3ccccc3n2c1N` are 15%, 20% and 62%.
The corresponding values for `CN(C)C(=O)COc1ccc(-c2c(C#N)c(N)n3c(nc4ccccc43)c2C#N)cc1` are 34%, 25% and 78%.
